Source: US10835516B2, “Protective, anti-inflammatory receptor and its use in preservation of mitochondrial function, wound healing and repair” (The Johns Hopkins University, priority 2011, dated 2020)
Positions count from the first letter of the chain named. Blank lines part the entries; values can stand above or below the compound they belong to.

Tests used:
mtAT1R = test: Immunoelectron microscopy of mtAT1R in kidney tubular cells of aged mice on chronic losartan; type: in vivo, C57BL/6 mice; conditions: 70-wk-old mice, losartan 40-60 mg/kg per day for 20 wk; aged untreated 12.7+5.8, young 2.0+2.2
Procedure: (§1) Immunolocalization of AT1R, AT2R, and Ang. Immunogold electron microscopy was performed as described (Am. J. Physiol. Endocrinot. Metab., 286:E1011-E1022 (2004)). In brief, mouse tissues were fixed in 4% formaldehyde in 0.1 M sodium cacodylate supplemented with 3% sucrose (wt/vol) and 3 mM CaCl2 and cryoprotected in 2.3 M sucrose overnight in polyvinylpyrrolidone (Sigma). Ultrathin sections were cut on a Leica Ultracut UCT microtome, and sections were placed on Formvar-coated nickel 200-mesh hexagonal grids. The sections were incubated in primary antibody against rabbit anti-AT2R, goat anti-Ang, or goat anti-AT1R antibody overnight at 4° C. at a concentration of 10 μg/mL. […] Primary antibodies were detected with either 6-nm colloidal gold donkey anti-goat or 12-nm colloidal goat anti-rabbit (Jackson ImmunoResearch) diluted 1:20 in PBS for 1 hour. Final contrasting of the sections was done by incubating them in 2% methyl cellulose (Sigma) and 0.3% uranyl acetate (Ted Pella) for 10 min at 4° C. All sections were viewed with a Philips CM 120 TEM transmission electron microscope at an accelerating voltage of 80 kV. Images were taken with a Gatan Orius SC 1000 digital camera. Photographs for representative sections were taken.

mtAT2R [1] = test: Immunoelectron microscopy of mtAT2R in kidney tubular cells of aged mice on chronic losartan; type: in vivo, C57BL/6 mice; conditions: 70-wk-old mice, losartan 40-60 mg/kg per day for 20 wk; aged untreated 10.2+2.2, young 25.5+6.2
Procedure: as §1

[2] = Blood pressure and general health of mice on chronic losartan
Procedure: Human and Animal Groups. Mitochondria were studied in adult human monocytes (20-30 y old), adult human skeletal muscle tissue, adult rats (24 wk old), adult (20 wk old) and aged (70 wk old) mice, and a human cell line. Adult mice at 50 wk of age were treated with the AT1R blocker losartan at doses of 40-60 mg/kg per day for 20 wk. All experiments were approved by the Johns Hopkins Animal Care and use Committee and the Johns Hopkins Institutional Review Board. Weight, blood urea nitrogen, creatinine, and albumin were measured in adult (20 wk) and aged (70 wk) mice and in aged mice on losartan treatment. […] We visually inspected each animal carcass after the dissection for any abnormalities.

wounds = test: Wound healing in db/db mice, losartan started at different phases; type: in vivo, BKS.Cg-m+/+Lepr^db/J(db/db) mice; conditions: 8 week old db/db mice; preliminary data
Source text: In order to provide additional rationale for using losartan ointment at day 7 of wound treatment, preliminary data was developed on the effects of losartan on all phases of wound healing in 8 week old BKS.Cg-m+/+Lepr^db/J(db/db) mice (FIGS. 11, 12).

8-mm excisional wounds = test: Full thickness excisional wound healing, daily topical cream; type: in vivo, mice; conditions: after three days of treatment, FIG. 8
Procedure: For wound-healing experiments, animal procedures were approved by the Johns Hopkins University Animal Care and Use Committee. During the experiments the animals were-housed one per cage, maintained under controlled environmental conditions (12 hours light to dark cycle, temperature approximately 23° C.), and provided with standard laboratory food and water ad libitum. 16 male mice with average weight of 30 g were divided into two groups. Mice were anesthetized with ketamine hydrochloride (100 mg/kg) and xylazine (10 mg/kg), and the dorsum was shaved and then treated with a depilatory (Nair cream, Church & Dwight Co., Princeton, N.J.). Two symmetrical full thickness excisional wounds created on their back using an 8-mm punch biopsy instrument. No dressing was used after burn. The animals were resuscitated according to the Parkland formula (4 mL/kg/percent body area) by intraperitoneal injection of saline within 1 hour after wound. Animals were divided into two groups; A and B. One group received daily application of an angiotensin receptor blocker cream to both wounds per animal and the other received vehicle. Researchers were blinded to the identity of the cream applied. We used digital photography and computerized planimetry to assess the rate of wound healing in either group.

mtAT2R [3] = target: T1, mtAT2R (Mus musculus, UniProt P35374); test: NO production in isolated kidney mitochondria (NO fluorescent probe); type: biochemical; conditions: PD-123319 1 μM; P<0.01
T1 construct: from tissue; host or cells: isolated kidney mitochondria
T1 sequence (P35374 1-363): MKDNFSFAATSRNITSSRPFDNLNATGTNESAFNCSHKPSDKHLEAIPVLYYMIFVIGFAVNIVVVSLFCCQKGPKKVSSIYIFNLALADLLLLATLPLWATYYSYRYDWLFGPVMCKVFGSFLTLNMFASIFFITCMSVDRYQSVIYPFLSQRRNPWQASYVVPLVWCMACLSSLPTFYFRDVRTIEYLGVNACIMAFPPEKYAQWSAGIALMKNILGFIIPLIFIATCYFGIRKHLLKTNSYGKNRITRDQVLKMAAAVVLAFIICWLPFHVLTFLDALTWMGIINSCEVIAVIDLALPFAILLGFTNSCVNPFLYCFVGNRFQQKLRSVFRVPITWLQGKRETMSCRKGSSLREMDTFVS
Procedure: Measurement of Nitric Oxide (NO) Production in Isolated Mitochondria. Kidney mitochondria were isolated by homogenization and differential centrifugation in a medium containing […] of 1 M sucrose, 12 mL of 1 M mannitol, 2.5 mL of 1 M KCL, 1 M Tris-HCL, 0.5 mL of 1 M EDTA, 1.5 mL of 0.1 M EGTA, and 0.1% BSA (pH 7.4). Mitochondria were suspended in incubation solution. Total mitochondrial protein was determined by a Lowry Protein Assay Kit (Sigma-Aldrich). […] The fluorescent products were measured by using a reader equipped with Cyanine 5 (650/670 nm).
AT2Rs Modulate Mitochondrial NO Production. To determine whether mtAT2R activation might modulate mitochondrial NO production in a manner analogous to the actions of non-mtAT2Rs on other NO isoforms, the direct effects of AT2R agonists and antagonists were determined on isolated kidney mitochondria. […] Fluorescence signal was measured by using a multimode microplate reader equipped with Cyanine 5 (650/670 nm). Treatment of mitochondria with CGP421140 caused a concentration-dependent increase in mitochondrial NO production (FIG. 6A); specifically, 10 nM was sufficient to stimulate NO production [from 0.52±0.0009 fluorescence arbitrary units (AU) at baseline control to 0.6+0.01 AU, P<0.001]. […]

mtAT2R [4] = target: T2, mtAT2R (Rattus norvegicus, UniProt P35351); test: Mitochondrial respiration, isolated rat heart mitochondria (Seahorse XF96); type: biochemical
T2 construct: we examined effects on respiration in rat heart mitochondria; from tissue; host or cells: isolated rat heart or liver mitochondria
T2 sequence (P35351 1-363): T1 sequence (P35374 1-363) with R18L, S40A, L88V, G352S
Procedure: Mitochondrial Respiration. For monitoring respiration, isolated mitochondria from rat heart or liver (10 μg of protein per well) were aliquoted into 96 wells of a polyethyleneimine-coated XF96 cell culture microplate (Seahorse Bioscience). The plate was centrifuged at 3,000×g for 10 minutes at 4° C. in an A-4-62 rotor, which control experiments determined caused an attachment of isolated mitochondria that was sufficiently robust to withstand the mixing protocols of the machine. Mitochondria were placed in 300 μL per well of mitochondrial buffer [20 mM Hepes, 137 mM KCl, 2.5 mM MgCl2, 2 mM K2HPO4, 0.5 mM EGTA, and 0.2% (wt/vol) BSA (pH 7.3) at 37° C.]J. Plates were used immediately. The cell culture microplate was incubated and loaded into the Seahorse XF96 extracellular flux analyzer following the manufacturer's instructions. All experiments were performed at 37° C.
Oxygen consumption rate data points refer to the mean rates during the measurement cycles, which consisted of a mixing time of 30 s and a wait time of 2 minutes followed by a data acquisition period of 10 minutes (50 data points). […] The oxygen consumption rates were determined by using a compartment model-based deconvolution algorithm, which compensated for oxygen diffusion phenomena occurring around the entrapped volume and for the response time of the probe. […]

Structure (SMILES): CCCCc1nc(Cl)c(CO)n1Cc1ccc(-c2ccccc2-c2nn[nH]n2)cc1 [losartan]
- mtAT1R expression (mtAT1R): 11.0+2.1 gold-labeled AT1R per mitochondrion
- mtAT2R expression (mtAT2R [1]): 39.0+2.6 gold-labeled AT2R per mitochondrion
- evidence of malignancy on carcass inspection ([2]; 10 animals per group): did not observe any evidence of malignancy
- weight, blood urea nitrogen, creatinine, and albumin ([2]; adult, aged and aged mice on losartan, data not shown): no significant difference
- decrease in blood pressure ([2]; losartan 40-60 mg/kg per day for 20 wk): 10-15%
- healing and elasticity, treatment starting at day 7 compared to day 1 (wounds): accelerated healing and improved elasticity
- wound granulation versus vehicle (8-mm excisional wounds): more granulation

- CGP421140-stimulated NO production after pretreatment with PD-123319 (mtAT2R [3]): 0.55±0.006 AU
- CGP421140-inhibited state 3 respiration restored by PD-123319 (mtAT2R [4]; 100 nM CGP421140 + PD-123319 1 μM, P<0.01): 66.83±2.1 pmol/min per μg
Structure (SMILES): Cc1cc(Cn2cnc3c2C[C@@H](C(=O)O)N(C(=O)C(c2ccccc2)c2ccccc2)C3)ccc1N(C)C [PD-123319]

Structure (SMILES): COC(=O)[C@@H](N)CCCNC(=N)N[N+](=O)[O-] [L-NAME, L-N^G-nitroarginine methyl ester]
- CGP421140-inhibited state 3 respiration reversed by L-NAME (mtAT2R [4]; 100 nM CGP421140 + L-NAME 1 μM, P<0.05): 67.4±4.3 pmol/min per μg
